The test system of data set [1] is cell viability.
Data set [2] concerns bacterial-induced middle ear inflammation. The settings on record: 10 μM peptide without bacteria, five mice, 3 days.

Where two headings read alike, the source gives them in different places. Where no end group is shown, it is not given here.

Consider “ITCVDVDLIYKRRRRRRRRR [Scrambled peptide, reference compound]”, for which the “effect on cell viability” value in data set [1] is reported as “no effect on cell viability”.
Regarding DIVKLTVYDCIRRRRRRRRR [peptide P13], the “effect on cell viability” value in data set [1] (10 μM) is on record as “no effect on cell viability”. Further, the “effect of peptide alone on fluid area, cell number, tympanic membrane thickness vs PBS injected ear” value in data set [2] is “no differences”.

The record behind these values is patent US8445449B2, “Method and peptide for regulating cellular activity” (The United States of America, as represented by the …, priority 2004, dated 2013).
